We go through two molecules from patent US10874637B2, “Methods and pharmaceutical compositions for the treatment of neurodegeneration with brain iron accumulation” (INSERM (Institut National de la Santé et de la Recherche …, priority 2016, dated 2020).

In one experiment the test system is TfR1. As to the kind of experiment: TfR1 palmitoylation assay in cultured skin fibroblasts (fatty acyl exchange chemistry). Format: cell-based, human. The following applies: control and NBIA fibroblasts, 25 μM artesunate for 48 h. The procedure:
Skin fibroblasts were isolated from patients 1-2 and from four NBIA patients carrying biallelic PANK2, PLA2G6, C19ORF12 and FA2H mutations (Supplementary Table 2). Fibroblasts were grown in DMEM (Life technologies) medium supplemented with 10% fetal beef serum (FBS), 2 mM L-glutamine, 2.5 mM pyruvate, 100 μg/ml streptomycin, 100 U/ml penicillin at 37° C. For treatment with ferric ammonium citrate (FAC), 90% confluent cells were incubated for 72 h with or without 100 μM FAC in serum-free DMEM (i.e. Tf free). HeLa cells were grown in the same medium. TfR1 palmitoylation in cultured skin fibroblasts was modified from^15. Briefly, cells were lysed on ice in a DTT-free cell lysis buffer and endogenous TfR1 was immunoprecipitated with mouse anti-TfR1 antibody (Zymed) with protein G magnetic beads (Biorad). After washing with PBS, beads were incubated overnight with 50 mM N-ethylmaleimide (NEM) at 4° C., washed 3 times with PBS and then incubated with 1 M hydroxylamine (HA) at room temperature for 2 hours. After three washes, the beads were incubated with 50 mM HPDP-Biotin (Thermo) in dark for 2 hours. Biotin-labeled TfR1 level was determined by immunoblotting in non-reducing conditions using a goat anti-biotin antibody (Thermo) while immunoblotting with rabbit anti-TfR1 antibody (Abcam) was used as loading control.

A further experiment has as its system ferritin (FTH). Nature of the experiment: Western blot of ferritin (FTH) steady state levels in fibroblasts. Format: cell-based, human. The note with it: control and NBIA fibroblasts, artesunate treatment (25 μM, 48 h). How it is done:
Skin fibroblasts were isolated from patients 1-2 and from four NBIA patients carrying biallelic PANK2, PLA2G6, C19ORF12 and FA2H mutations (Supplementary Table 2). Fibroblasts were grown in DMEM (Life technologies) medium supplemented with 10% fetal beef serum (FBS), 2 mM L-glutamine, 2.5 mM pyruvate, 100 μg/ml streptomycin, 100 U/ml penicillin at 37° C. For treatment with ferric ammonium citrate (FAC), 90% confluent cells were incubated for 72 h with or without 100 μM FAC in serum-free DMEM (i.e. Tf free). HeLa cells were grown in the same medium. Cultured skin fibroblasts or HeLa cells were harvested on ice by scraping in reducing or non-reducing cell lysis buffer. SDS-PAGE was performed on whole-cell protein extracts. Immunodetections were performed in PBS with 5% milk, 0.05 Tween20 (SIGMA) using the following antibodies: rabbit anti-CRAT (HPA022815, Sigma), rabbit anti-ACOT8 (SAB4500009 SIGMA), mouse anti-REPS1 (ab69221), mouse anti-SOD1 (ab86454), mouse anti-TfR1 (Zymed 136890), rabbit anti-ferritin (ab75973), rabbit anti-IRP1 (ab126595), rabbit anti-IRP2 (ab80339), mouse anti-GRIM19 (ab110240), rabbit anti-catalase (ab16731), rabbit anti-FBXLS (ab140175), rabbit anti-LC3B (ab51520) and mouse anti-actin antibodies (ab8226). […]
A general note: In western blotting, separated proteins are transferred to a membrane and probed.

The test system of a further experiment is liver and ovarian cancer. The following applies: via induction of TfR1 palmitoylation and reduction of its cell-surface levels; cited from earlier work.
The next experiment has as its system iron amount. The following applies: treatment increasing TfR1 palmitoylation; cited from earlier work.

Entries after “also recorded” stand apart in the source; their conditions may differ.

Take `C[C@H]1[C@H](OC(=O)CCC(=O)O)O[C@@H]2O[C@@]3(C)CC[C@H]4[C@H](C)CC[C@@H]1[C@@]24OO3` [artesunate, (3R,5aS,6R,8aS,9R,10S,12R,12aR)-Decahydro-3,6,9-trimethyl-3,12-epoxy-12H-pyrano [4,3-j]-1,2-benzodioxepin-10-ol, hydrogen succinate]: the TfR1 palmitoylation entry in the experiment with TfR1 is “enhanced TfR1 palmitoylation; also recorded: improved TfR1 palmitoylation”. The “ferritin (FTH) steady state levels (indicator of iron content)” value in the experiment on ferritin (FTH) is on record as “decreased ferritin steady state level”. For the same molecule, the “liver and ovarian cancer growth” value in the experiment with liver and ovarian cancer was “inhibit liver and ovarian cancer growth”.

Take dihydroartesunate: in the experiment on iron amount, the iron amount result is “reduces iron amount”.
